Experimental data taken from patent US20250195513A1, “DEGRADATION OF IRAK4 BY CONJUGATION OF IRAK4 INHIBITORS WITH E3 LIGASE LIGAND AND METHODS OF USE” (BeiGene, Ltd., priority 2022, published 2025).
pIC50: −log10 of the molar value.

Legend:
Type in all cases: cell-based
[1] = target: T1, IRAK4 (Homo sapiens, UniProt Q9NWZ3); experiment: IRAK4 Degradation Assay (Karpas299, HTRF/TR-FRET); settings: Karpas-299 cells; for Dmax: maximum percentage of degradation
T1 construct: endogenous in cells; host or cells: Karpas299
T1 sequence (Q9NWZ3 1-460): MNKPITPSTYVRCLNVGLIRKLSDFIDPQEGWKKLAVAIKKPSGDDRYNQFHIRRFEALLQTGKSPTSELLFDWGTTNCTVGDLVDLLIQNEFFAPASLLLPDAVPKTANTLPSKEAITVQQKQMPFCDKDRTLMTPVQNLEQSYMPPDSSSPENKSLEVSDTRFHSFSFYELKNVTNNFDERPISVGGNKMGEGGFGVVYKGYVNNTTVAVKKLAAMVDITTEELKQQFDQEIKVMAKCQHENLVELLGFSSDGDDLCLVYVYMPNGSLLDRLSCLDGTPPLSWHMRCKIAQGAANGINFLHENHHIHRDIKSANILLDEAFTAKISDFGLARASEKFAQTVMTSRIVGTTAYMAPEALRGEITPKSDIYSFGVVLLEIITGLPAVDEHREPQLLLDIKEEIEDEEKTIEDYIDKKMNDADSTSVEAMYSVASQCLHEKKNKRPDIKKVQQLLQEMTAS
Outline: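 Compound potency as DC50 (IC50) came from four-parameter fits of percent IRAK4 degradation. IRAK4 was measured by HTRF (665/620 nm) in lysates of Karpas299 cells seeded at 0.2 million per well. Cells had been treated with compound dilutions for 5 or 24 h.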

[2] = tested on: TNF-α production in THP-1 cells; experiment: TNF-α Production Assay in THP-1 Cells (LPS stimulated); settings: Homo sapiens, THP-1, 24 h; for Emax: maximum inhibition, read-out: TNF-α (THP-1) 24 h IMax
Procedure: THP-1 cells maintained in RPMI 1640 medium (Thermo Scientific) supplemented with 10% FBS (Thermo Scientific), 100 units/mL penicillin and 0.1 mg/mL streptomycin (Thermo Scientific) were seeded into 96-well plates at the density of 0.2 million cells per well and then treated with compounds for 24 h. Lipopolysaccharide was subsequently added at the final concentration of 1 μg/mL for 24 h. Culture supernatant was collected for measurement of TNF-α concentration by a TR-FRET-based method (Degorce, François, et al. Current chemical genomics. 2009, 3: 22) as described by the manufacturer manual (Cisbio). FRET signals were measured using a PHERAstar FSX reader (BMG Labtech).

[3] = target: T1, IRAK4; experiment: IRAK4 Degradation Assay with Human Serum (Karpas299, HTRF/TR-FRET); settings: Karpas-299 in human serum, 24 hrs treatment; for DC50: read-out: IRAK4 degradtion with human serum assay DC50; for Dmax: read-out: IRAK4 degradtion with human serum assay Dmax (%)
Outline: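 Remaining IRAK4 measured by TR-FRET immunoassay on lysates of Karpas299 cells exposed 24 h to compound dilution series in human serum AB. DC50 derived from a Hill-slope fit of % degradation versus concentration.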

[4] = 5 h treatment, read-out: IRAK4 in Karpas-299 (5 h) Dmax (%)
[5] = 5 h treatment, read-out: IRAK4 in Karpas-299 (5 h) DC50
[6] = 24 h treatment, read-out: IRAK4 in Karpas-299 (24 h) Dmax (%)
[7] = 24 h treatment, read-out: IRAK4 in Karpas-299 (24 h) DC50

| Dmax [1, 4] [%] | DC50 [1, 5] [nM] | Dmax [1, 6] [%] | DC50 [1, 7] [nM] | pIC50 [2] | DC50 [3] [nM] | Dmax [3] [%] | SMILES | Emax [2] [%] |
| --- | --- | --- | --- | --- | --- | --- | --- | --- |
| 81 | 33 | 99 | 3.1 | 7.00 | – | – | COc1cc2nn([C@H]3CC[C@H](CN4CCN(C(=O)[C@@H]5CCN(c6ccc(N7CCC(=O)NC7=O)cc6)C5)CC4)CC3)cc2cc1NC(=O)c1cccn(C2CC2)c1=O [Example 33, 1-cyclopropyl-N-(2-((1R,4r)-4-((4-((R)-1-(4-(2,4-dioxotetrahydropyrimidin-1(2H)-yl)phenyl)pyrrolidine-3-carbonyl)piperazin-1-yl)methyl)cyclohexyl)-6-methoxy-2H-indazol-5-yl)-2-oxo-1,2-dihydropyridine-3-carboxamide] | 53 |
| – | – | 96 | 1.3 | 7.28 | – | – | CC(C)(O)c1cc2nn([C@H]3CC[C@H](N4CCN(C(=O)C5CN(c6cc(F)c(N7CCC(=O)NC7=O)c(F)c6)C5)CC4)CC3)cc2cc1NC(=O)c1cccc(C(F)(F)F)n1 [Example 114, N-(2-((1r,4r)-4-(4-(1-(4-(2,4-dioxotetrahydropyrimidin-1(2H)-yl)-3,5-difluorophenyl)azetidine-3-carbonyl)piperazin-1-yl)cyclohexyl)-6-(2-hydroxypropan-2-yl)-2H-indazol-5-yl)-6-(trifluoromethyl)picolinamide] | 78 |
| 99 | 17 | 98 | 1.8 | 7.16 | – | – | [2H]C([2H])([2H])Oc1cc2nn([C@H]3CC[C@H](N4CCN(C(=O)C5CN(c6cc(F)c(N7CCC(=O)NC7=O)c(F)c6)C5)CC4)CC3)cc2cc1NC(=O)c1cccc(C(F)(F)F)n1 [Example 173, N-(2-((1r,4r)-4-(4-(1-(4-(2,4-dioxotetrahydropyrimidin-1(2H)-yl)-3,5-difluorophenyl)azetidine-3-carbonyl)piperazin-1-yl)cyclohexyl)-6-(methoxy-d3)-2H-indazol-5-yl)-6-(trifluoromethyl)picolinamide] | 79 |
| – | – | 96 | 2.9 | – | 8.4 | 94 | Cc1nc(C2CCC(=O)NC2=O)ccc1N1CCC(N2CCC3(CCC(n4cc5cc(NC(=O)c6ccc7cc(C#N)cnn67)c(C(C)(C)O)cc5n4)CC3)CC2)CC1 (stereo not shown) [Example 427, 3-cyano-N-(2-(3-(1-(6-(2,6-dioxopiperidin-3-yl)-2-methylpyridin-3-yl)piperidin-4-yl)-3-azaspiro[5.5]undecan-9-yl)-6-(2-hydroxypropan-2-yl)-2H-indazol-5-yl)pyrrolo[1,2-b]pyridazine-7-carboxamide] | – |
| – | – | 93 | 2.9 | – | 33 | 94 | CC(C)(O)c1cc2nn(C3CCC4(CC3)CCN(C3CN(c5cc(F)c([C@H]6CCC(=O)NC6=O)c(F)c5)C3)CC4)cc2cc1NC(=O)c1ccc2cc(C#N)cnn12 [Example 428, (R)-3-cyano-N-(2-(3-(1-(4-(2,6-dioxopiperidin-3-yl)-3,5-difluorophenyl)azetidin-3-yl)-3-azaspiro[5.5]undecan-9-yl)-6-(2-hydroxypropan-2-yl)-2H-indazol-5-yl)pyrrolo[1,2-b]pyridazine-7-carboxamide] | – |
| – | – | 97 | 1 | – | 32 | 94 | CC(C)(O)c1cc2nn([C@H]3CC[C@H](N4CCN(C(=O)C5CCN(c6ccc7c(c6)C(=O)N(C6CCC(=O)NC6=O)C7=O)CC5)CC4)CC3)cc2cc1NC(=O)c1ccc2cc(C#N)cnn12 (stereo partly shown) [Example 429, 3-cyano-N-(2-((1r,4r)-4-(4-(1-(2-(2,6-dioxopiperidin-3-yl)-1,3-dioxoisoindolin-5-yl)piperidine-4-carbonyl)piperazin-1-yl)cyclohexyl)-6-(2-hydroxypropan-2-yl)-2H-indazol-5-yl)pyrrolo[1,2-b]pyridazine-7-carboxamide] | – |
| – | – | 97 | 1.4 | – | 15 | 98 | CC(C)(O)c1cc2nn([C@H]3CC[C@H](N4CCN(C5CCN(c6ccc7c(c6)C(=O)N(C6CCC(=O)NC6=O)C7=O)CC5)CC4)CC3)cc2cc1NC(=O)c1ccc2cc(C#N)cnn12 (stereo partly shown) [Example 430, 3-cyano-N-(2-((1r,4r)-4-(4-(1-(2-(2,6-dioxopiperidin-3-yl)-1,3-dioxoisoindolin-5-yl)piperidin-4-yl)piperazin-1-yl)cyclohexyl)-6-(2-hydroxypropan-2-yl)-2H-indazol-5-yl)pyrrolo[1,2-b]pyridazine 7-carboxamide] | – |
| – | – | 94 | 1.6 | – | 8.7 | 95 | CC(C)(O)c1cc2nn([C@H]3CC[C@H](N4CCN(C[C@@H]5CCN(c6ccc7c(c6)C(=O)N(C6CCC(=O)NC6=O)C7=O)C5)CC4)CC3)cc2cc1NC(=O)c1ccc2cc(C#N)cnn12 (stereo partly drawn) [Example 431, 3-cyano-N-(2-((1S,4r)-4-(4-(((3S)-1-(2-(2,6-dioxopiperidin-3-yl)-1,3-dioxoisoindolin-5-yl)pyrrolidin-3-yl)methyl)piperazin-1-yl)cyclohexyl)-6-(2-hydroxypropan-2-yl)-2H-indazol-5-yl)pyrrolo[1,2-b]pyridazine-7-carboxamide] | – |
| – | – | 95 | 1.9 | – | 14 | 92 | CC(C)(O)c1cc2nn([C@H]3CC[C@H](N4CCN(C[C@H]5CCN(c6ccc7c(c6)C(=O)N(C6CCC(=O)NC6=O)C7=O)C5)CC4)CC3)cc2cc1NC(=O)c1ccc2cc(C#N)cnn12 (stereo partly drawn) [Example 432, 3-cyano-N-(2-((1R,4r)-4-(4-(((3R)-1-(2-(2,6-dioxopiperidin-3-yl)-1,3-dioxoisoindolin-5-yl)pyrrolidin-3-yl)methyl)piperazin-1-yl)cyclohexyl)-6-(2-hydroxypropan-2-yl)-2H-indazol-5-yl)pyrrolo[1,2-b]pyridazine-7-carboxamide] | – |
| – | – | 96 | 10.8 | – | 14 | 85 | CC(C)(O)c1cc2nn([C@H]3CC[C@H](CN4CCN(C5CCN(c6ccc7c(c6)C(=O)N(C6CCC(=O)NC6=O)C7=O)CC5)CC4)CC3)cc2cc1NC(=O)c1ccc2cc(C#N)cnn12 (stereo partly shown) [Example 436, 3-cyano-N-(2-((1r,4r)-4-((4-(1-(2-(2,6-dioxopiperidin-3-yl)-1,3-dioxoisoindolin-5-yl)piperidin-4-yl)piperazin-1-yl)methyl)cyclohexyl)-6-(2-hydroxypropan-2-yl)-2H-indazol-5-yl)pyrrolo[1,2-b]pyridazine-7-carboxamide] | – |
| – | – | 99 | 4.7 | – | 9.4 | 101 | CC(C)(O)c1cc2nn([C@H]3CC[C@H](N4CCN(CCNc5cccc6c5C(=O)N(C5CCC(=O)NC5=O)C6=O)CC4)CC3)cc2cc1NC(=O)c1ccc2cc(C#N)cnn12 (stereo partly shown) [Example 437, 3-cyano-N-(2-((1r,4r)-4-(4-(2-((2-(2,6-dioxopiperidin-3-yl)-1,3-dioxoisoindolin-4-yl)amino)ethyl)piperazin-1-yl)cyclohexyl)-6-(2-hydroxypropan-2-yl)-2H-indazol-5-yl)pyrrolo[1,2-b]pyridazine-7-carboxamide] | – |
| – | – | 96 | 2.5 | – | 17 | 96 | CC(C)(O)c1cc2nn([C@H]3CC[C@H](CN4CCN(CCNc5cccc6c5C(=O)N(C5CCC(=O)NC5=O)C6=O)CC4)CC3)cc2cc1NC(=O)c1ccc2cc(C#N)cnn12 (stereo partly shown) [Example 438, 3-cyano-N-(2-((1r,4r)-4-((4-(2-((2-(2,6-dioxopiperidin-3-yl)-1,3-dioxoisoindolin-4-yl)amino)ethyl)piperazin-1-yl)methyl)cyclohexyl)-6-(2-hydroxypropan-2-yl)-2H-indazol-5-yl)pyrrolo[1,2-b]pyridazine-7-carboxamide] | – |
